This assay deals with Insulin-like Growth Factor 1 Receptor (IGF-1R) (Homo sapiens, UniProt P08069). As to the kind of experiment: IGF-1R inhibition in vitro. Format: biochemical.

pIC50: −log10 of the molar value.

Insulin-like Growth Factor 1 Receptor (IGF-1R), sequence (P08069 31-1367, species assumed): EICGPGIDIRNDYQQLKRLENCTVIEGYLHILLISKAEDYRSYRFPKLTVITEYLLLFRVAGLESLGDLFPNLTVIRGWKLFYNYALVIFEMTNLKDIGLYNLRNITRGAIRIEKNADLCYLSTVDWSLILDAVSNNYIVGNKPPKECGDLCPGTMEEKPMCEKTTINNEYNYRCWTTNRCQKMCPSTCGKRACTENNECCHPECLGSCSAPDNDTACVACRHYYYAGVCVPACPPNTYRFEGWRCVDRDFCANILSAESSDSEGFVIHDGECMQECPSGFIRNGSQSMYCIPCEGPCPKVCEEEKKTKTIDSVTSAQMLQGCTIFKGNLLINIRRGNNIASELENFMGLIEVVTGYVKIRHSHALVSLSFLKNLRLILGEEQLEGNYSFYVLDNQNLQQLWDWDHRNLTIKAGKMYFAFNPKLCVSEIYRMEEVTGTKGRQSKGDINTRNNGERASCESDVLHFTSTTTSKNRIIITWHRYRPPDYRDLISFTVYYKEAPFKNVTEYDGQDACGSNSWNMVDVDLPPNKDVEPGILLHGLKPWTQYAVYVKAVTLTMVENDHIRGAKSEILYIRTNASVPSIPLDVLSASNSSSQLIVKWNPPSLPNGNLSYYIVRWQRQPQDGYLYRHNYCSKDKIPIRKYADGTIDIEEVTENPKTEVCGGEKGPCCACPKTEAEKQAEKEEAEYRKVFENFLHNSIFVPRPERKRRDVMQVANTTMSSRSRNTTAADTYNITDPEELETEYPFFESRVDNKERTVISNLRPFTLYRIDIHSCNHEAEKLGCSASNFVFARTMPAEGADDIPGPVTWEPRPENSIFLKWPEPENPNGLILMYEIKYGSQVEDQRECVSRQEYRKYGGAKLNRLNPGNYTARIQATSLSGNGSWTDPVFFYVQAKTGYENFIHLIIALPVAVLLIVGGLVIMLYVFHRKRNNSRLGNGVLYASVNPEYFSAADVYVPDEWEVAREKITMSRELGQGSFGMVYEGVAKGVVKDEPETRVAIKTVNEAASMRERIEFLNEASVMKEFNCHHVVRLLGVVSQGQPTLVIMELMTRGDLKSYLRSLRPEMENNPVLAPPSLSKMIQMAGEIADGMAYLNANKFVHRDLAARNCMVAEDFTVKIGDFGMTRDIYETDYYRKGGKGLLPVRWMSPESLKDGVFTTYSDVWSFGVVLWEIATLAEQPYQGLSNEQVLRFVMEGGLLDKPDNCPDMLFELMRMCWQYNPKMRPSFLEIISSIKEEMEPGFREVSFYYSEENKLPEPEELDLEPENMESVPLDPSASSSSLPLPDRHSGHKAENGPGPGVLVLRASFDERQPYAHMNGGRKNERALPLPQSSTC

One may read the pIC50 as the IC50 on a negative log10 scale, so that one unit is a factor of ten. Read a low pIC50 as a large IC50. On to `N#CC(=Cc1ccc(O)c(O)c1)C(=O)c1ccc2[nH]c(=O)oc2c1` (single isomer, unassigned) [GB16-11], for which the pIC50 is 6.70.
With `N#CC(=Cc1ccc(O)c(O)c1)C(=O)c1ccc2[nH]c(=O)oc2c1` (single isomer, unassigned) [GB 16-10] the figure was 5.92; with `N#C/C(=C\c1ccc(O)c(O)c1)C(=O)c1ccc(O)c(O)c1` [AG 538, reference compound], 7.22; with `N#C/C(=C\c1ccc2oc(=O)[nH]c2c1)C(=O)c1ccc(O)c(O)c1` [AGL 2263], 7.15.
Under `N#C/C(=C\c1ccc2[nH]c(=O)oc2c1)C(=O)c1ccc2[nH]c(=O)oc2c1` [GB18] stands 5.38; under `N#C/C(=C\c1ccc2oc(=O)[nH]c2c1)C(=O)c1ccc2[nH]c(=O)oc2c1` [GB 17], 4.92.

For the origin of these results see patent US20050143430A1, “Catechol bioisosteres” (priority 2002, published 2005).
